In brackets after ≈: the same amount, converted by molar mass.

Assay [1] deals with Salmonella typhimurium. The assay can be described thus: Compound was tested in vitro for its minimum inhibitory concentration by serial 2-fold agar dilution Muller Hinton method against Salmonella Typhimurium. It is filed as functional, Salmonella enterica subsp. enterica serovar Typhimurium. The conditions noted are these: Salmonella enterica.
For assay [2], the system named is Streptococcus pyogenes. The assay can be described thus: Compound was tested in vitro for its minimum inhibitory concentration by serial 2-fold agar dilution Muller Hinton method against Streptococcus pyogenes A 308. It is filed as functional.
The test system of assay [3] is Escherichia coli. The assay can be described thus: Compound was tested in vitro for its minimum inhibitory concentration by serial 2-fold agar dilution Muller Hinton method against Escherichia coli O 55. It is filed as functional.
Assay [4] has as its system Escherichia coli. The assay can be described thus: Compound was tested in vitro for its minimum inhibitory concentration by serial 2-fold agar dilution Muller Hinton method against Escherichia coli DC 0. In kind it is functional.
For assay [5], the system named is Pseudomonas aeruginosa. The assay can be described thus: Compound was tested in vitro for its minimum inhibitory concentration by serial 2-fold agar dilution Muller Hinton method against Pseudomonas aeruginosa 9027. It is filed as functional.
Assay [6] relates to Enterobacter cloacae. The assay can be described thus: Compound was tested in vitro for its minimum inhibitory concentration by serial 2-fold agar dilution Muller Hinton method against Enterobacter cloacae P99. It is filed as functional.
Assay [7] has as its system Enterobacter cloacae. The assay can be described thus: Compound was tested in vitro for its minimum inhibitory concentration by serial 2-fold agar dilution Muller Hinton method against Enterobacter cloacae 1321. In kind it is functional.
Assay [8] deals with Streptococcus pyogenes. The assay can be described thus: Compound was tested in vitro for its minimum inhibitory concentration by serial 2-fold agar dilution Muller Hinton method against Streptococcus pyogenes 8b. In kind it is functional.
Assay [9] concerns Streptococcus pyogenes. The assay can be described thus: Compound was tested in vitro for its minimum inhibitory concentration by serial 2-fold agar dilution Muller Hinton method against Streptococcus pyogenes A77. In kind it is functional.
The subject of assay [10] is Klebsiella aerogenes. The assay can be described thus: Compound was tested in vitro for its minimum inhibitory concentration by serial 2-fold agar dilution Muller Hinton method against Klebsiella aerogenes 1522 E. It is filed as functional.
Assay [11] has as its system Escherichia coli. The assay can be described thus: Compound was tested in vitro for its minimum inhibitory concentration by serial 2-fold agar dilution Muller Hinton method against Escherichia coli 1507E. It is filed as functional.
Assay [12] has as its system Klebsiella oxytoca. The assay can be described thus: Compound was tested in vitro for its minimum inhibitory concentration by serial 2-fold agar dilution Muller Hinton method against Klebsiella oxytoca 1082 E. In kind it is functional.
Assay [13] relates to Pseudomonas aeruginosa. The assay can be described thus: Compound was tested in vitro for its minimum inhibitory concentration by serial 2-fold agar dilution Muller Hinton method against Pseudomonas aeruginosa 1771. In kind it is functional.
The subject of assay [14] is Staphylococcus aureus. The assay can be described thus: Compound was tested in vitro for its minimum inhibitory concentration by serial 2-fold agar dilution Muller Hinton method against Staphylococcus aureus 503. It is filed as functional.
Assay [15] concerns Pseudomonas aeruginosa. The assay can be described thus: Compound was tested in vitro for its minimum inhibitory concentration by serial 2-fold agar dilution Muller Hinton method against Pseudomonas aeruginosa 1771 M. It is filed as functional.
In assay [16] the test system is Escherichia coli. The assay can be described thus: Compound was tested in vitro for its minimum inhibitory concentration by serial 2-fold agar dilution Muller Hinton method against Escherichia coli DC 2. In kind it is functional.
Assay [17] concerns Pseudomonas aeruginosa. The assay can be described thus: Compound was tested in vitro for its minimum inhibitory concentration by serial 2-fold agar dilution Muller Hinton method against Pseudomonas aeruginosa 1592 E. In kind it is functional.
Assay [18] deals with Staphylococcus aureus. The assay can be described thus: Compound was tested in vitro for its minimum inhibitory concentration by serial 2-fold agar dilution Muller Hinton method against Staphylococcus aureus 285. It is filed as functional.
Assay [19] deals with Escherichia coli. The assay can be described thus: Compound was tested in vitro for its minimum inhibitory concentration by serial 2-fold agar dilution Muller Hinton method against Escherichia coli TEM. In kind it is functional.
Assay [20] deals with Staphylococcus aureus. The assay can be described thus: Compound was tested in vitro for its minimum inhibitory concentration by serial 2-fold agar dilution Muller Hinton method against Staphylococcus aureus SG511. In kind it is functional.

As to `CCO/N=C(\C(=O)NC1C(=O)N2C(C(=O)[O-])=C(CN(C)c3scc(C)[n+]3C)CSC12)c1csc(N)n1` (stereo not given), the MIC in assay [1] was 0.049 µg/mL (≈ 0.0888 µM); in assay [2], 0.013 µg/mL (≈ 0.0236 µM); in assay [3], 0.025 µg/mL (≈ 0.0453 µM); in assay [4] it was 0.098 µg/mL (≈ 0.178 µM); in assay [5] it was 25 µg/mL (≈ 45.3 µM); in assay [6] it was 25 µg/mL (≈ 45.3 µM). Moreover, the MIC came out at 0.025 µg/mL (≈ 0.0453 µM) in assay [7]; 50 µg/mL (≈ 90.6 µM) in [8]; 13 ng/mL (≈ 0.0236 µM) in assay [9]; 0.049 µg/mL (≈ 0.0888 µM) in assay [10]; 0.098 µg/mL (≈ 0.178 µM) in assay [11]; 6.25 µg/mL (≈ 11.3 µM) in assay [12]. The MIC in [13] was 3.12 µg/mL (≈ 5.66 µM); in assay [14], 0.391 µg/mL (≈ 0.709 µM); in [15] it was 0.391 µg/mL (≈ 0.709 µM); in assay [16] it was 0.025 µg/mL (≈ 0.0453 µM); in assay [17], 12.5 µg/mL (≈ 22.7 µM); in assay [18], 1.56 µg/mL (≈ 2.83 µM). The minimum inhibitory concentration (MIC) in assay [19] amounted to 0.098 µg/mL (≈ 0.178 µM); in assay [20], 0.781 µg/mL (≈ 1.42 µM).

For the compound `C=CCO/N=C(\C(=O)NC1C(=O)N2C(C(=O)[O-])=C(CN(C)c3sc(C(=O)OCC)c(C)[n+]3C)CSC12)c1csc(N)n1` (stereo not given), the minimum inhibitory concentration (MIC) in assay [1] turned out to be 0.049 µg/mL (≈ 0.0771 µM); in assay [2], 0.013 µg/mL (≈ 0.0204 µM); in [3], 0.025 µg/mL (≈ 0.0393 µM); in assay [4], 0.098 µg/mL (≈ 0.154 µM); in assay [5], 25 µg/mL (≈ 39.3 µM); in [6], 25 µg/mL (≈ 39.3 µM). Besides, the MIC came out at 0.025 µg/mL (≈ 0.0393 µM) in assay [7]; 50 µg/mL (≈ 78.6 µM) in assay [8]; 13 ng/mL (≈ 0.0204 µM) in assay [9]; 0.049 µg/mL (≈ 0.0771 µM) in assay [10]; 0.098 µg/mL (≈ 0.154 µM) in assay [11]; 6.25 µg/mL (≈ 9.83 µM) in assay [12]. The MIC is 3.12 µg/mL (≈ 4.92 µM) in assay [13]; 0.391 µg/mL (≈ 0.615 µM) in [14]; 0.391 µg/mL (≈ 0.615 µM) in [15]; 0.025 µg/mL (≈ 0.0393 µM) in assay [16]; 12.5 µg/mL (≈ 19.7 µM) in assay [17]; 1.56 µg/mL (≈ 2.46 µM) in assay [18]. Besides, the MIC amounted to 0.098 µg/mL (≈ 0.154 µM) in [19] and 0.781 µg/mL (≈ 1.23 µM) in [20].

As for `CCO/N=C(\C(=O)NC1C(=O)N2C(C(=O)[O-])=C(CN(C)c3sc4c([n+]3C)CCCC4)CSC12)c1csc(N)n1` (stereo not given), the MIC in [1] came to 0.098 µg/mL (≈ 0.166 µM); in assay [2] it was 0.013 µg/mL (≈ 0.022 µM); in [3], 0.049 µg/mL (≈ 0.0828 µM); in [4], 0.098 µg/mL (≈ 0.166 µM); in assay [5], 25 µg/mL (≈ 42.2 µM); in assay [6] it was 6.25 µg/mL (≈ 10.6 µM). Besides, the MIC in [7] is 0.049 µg/mL (≈ 0.0828 µM); in assay [8], 25 µg/mL (≈ 42.2 µM); in [9], 7 ng/mL (≈ 0.0118 µM); in assay [10], 0.098 µg/mL (≈ 0.166 µM); in assay [11], 0.195 µg/mL (≈ 0.33 µM); in assay [12], 3.12 µg/mL (≈ 5.28 µM). Also, the MIC in assay [13] came to 6.25 µg/mL (≈ 10.6 µM); in assay [14] it was 0.195 µg/mL (≈ 0.33 µM); in [15], 0.391 µg/mL (≈ 0.661 µM); in assay [16] it was 0.025 µg/mL (≈ 0.0422 µM); in [17], 25 µg/mL (≈ 42.2 µM); in [18], 0.781 µg/mL (≈ 1.32 µM). Further, the MIC in [19] worked out at 0.195 µg/mL (≈ 0.33 µM); in [20], 0.391 µg/mL (≈ 0.661 µM).

With `CO/N=C(\C(=O)NC1C(=O)N2C(C(=O)[O-])=C(CN(C)c3scc[n+]3C)CSC12)c1csc(N)n1` (stereo not given), the MIC in assay [1] came out at 0.098 µg/mL (≈ 0.187 µM); in [2] it was 0.007 µg/mL (≈ 0.0134 µM); in [3], 0.025 µg/mL (≈ 0.0477 µM); in [4], 0.098 µg/mL (≈ 0.187 µM); in assay [5], 50 µg/mL (≈ 95.5 µM); in assay [6], 50 µg/mL (≈ 95.5 µM). Moreover, the minimum inhibitory concentration (MIC) in [7] is 0.049 µg/mL (≈ 0.0936 µM); in [8], over 100 µg/mL; in assay [9] it was 7 ng/mL (≈ 0.0134 µM); in [10], 0.098 µg/mL (≈ 0.187 µM); in assay [11], 0.098 µg/mL (≈ 0.187 µM); in assay [12], 25 µg/mL (≈ 47.7 µM). Further, the minimal inhibitory concentration (MIC) in assay [13] is 25 µg/mL (≈ 47.7 µM); in assay [14], 0.391 µg/mL (≈ 0.747 µM); in assay [15], 1.56 µg/mL (≈ 2.98 µM); in assay [16], 0.098 µg/mL (≈ 0.187 µM); in assay [17], 50 µg/mL (≈ 95.5 µM); in [18], 3.12 µg/mL (≈ 5.97 µM). Further, the figures for the MIC in assay [19] and in assay [20] were 0.098 µg/mL (≈ 0.187 µM) and 1.56 µg/mL (≈ 2.98 µM), respectively.

Consider `CO/N=C(\C(=O)NC1C(=O)N2C(C(=O)[O-])=C(CN(C)c3sc4c([n+]3C)CCCC4)CSC12)c1csc(N)n1` (stereo not given), for which the MIC stood at 0.049 µg/mL (≈ 0.0848 µM) in [1]; 0.007 µg/mL (≈ 0.0121 µM) in [2]; 0.025 µg/mL (≈ 0.0433 µM) in assay [3]; 0.049 µg/mL (≈ 0.0848 µM) in assay [4]; 50 µg/mL (≈ 86.5 µM) in assay [5]; 6.25 µg/mL (≈ 10.8 µM) in assay [6]. Besides, the MIC in assay [7] was determined as 0.013 µg/mL (≈ 0.0225 µM); in [8] it was 12.5 µg/mL (≈ 21.6 µM); in [9] it was 7 ng/mL (≈ 0.0121 µM); in [10], 0.025 µg/mL (≈ 0.0433 µM); in assay [11], 0.049 µg/mL (≈ 0.0848 µM); in [12], 3.12 µg/mL (≈ 5.41 µM). The minimal inhibitory concentration (MIC) was found to be 6.25 µg/mL (≈ 10.8 µM) in [13]; 0.195 µg/mL (≈ 0.338 µM) in [14]; 0.781 µg/mL (≈ 1.35 µM) in assay [15]; 0.025 µg/mL (≈ 0.0433 µM) in [16]; 25 µg/mL (≈ 43.3 µM) in assay [17]; 0.781 µg/mL (≈ 1.35 µM) in assay [18]. Also, the MIC in assay [19] came out at 0.049 µg/mL (≈ 0.0848 µM); in [20], 0.391 µg/mL (≈ 0.677 µM).

Source of the values: ChEMBL document CHEMBL1133057, “Synthesis and in vitro antibacterial activity of 3-[N-methyl-N-(3-methyl-1,3-thiazolium-2-yl)aminolmethyl cephalosporin derivatives” (2000).
